{"source": "paper PMC2610677", "about": "(Chemistry & biology, 2008)", "target": "trORAS (truncated ORAS) (Neurospora crassa, UniProt Q7S6N4)", "experiment": "HPLC of CoASH release, initial velocities, Michaelis-Menten fit", "type": "biochemical", "conditions": "malonyl-CoA (100 mM [sic]) as extender; 50 mM Tris-HCl pH 7.0; 30 °C", "data": [{"molecule": "CCCCCCCCCCCCCCCCCC(=O)SCCNC(=O)CCNC(=O)[C@H](O)C(C)(C)COP(=O)(O)OP(=O)(O)OC[C@H]1O[C@@H](n2cnc3c(N)ncnc32)[C@H](O)[C@@H]1OP(=O)(O)O", "note": "[7a, stearoyl-CoA]", "values": [{"measurement": "Km", "result": 3.5, "unit": "µM"}]}]}
